Patent publication US20060258635A1, “Use of a porphyrin compound for the treatment of skin fungi” (PHOTOBIOCHEM N.V., priority 2003, published 2006)

What was measured:
[1] = test system: Trichophyton rubrum; assay: Photodynamic treatment of Trichophyton rubrum suspension culture (white light illumination, growth on MEA quantified by counting inoculates); format: cell-based; conditions: for photodynamic efficacy below a concentration of 3 μg/ml: below 3 μg/ml; for photodynamic efficacy below a concentration of 3 μg/ml / photodynamic efficacy above a concentration of 3 μg/ml: FIG. 1A; for result of photodynamic treatment of Trichophyton rubrum in suspension culture: 30 min incubation at 28° C., white light illumination, growth monitored during one week; for photodynamic efficacy above a concentration of 3 μg/ml: above 3 μg/ml; for concentration at which a true fungicidal effect was detected: after photodynamic treatment, FIG. 1B; for survival of the fungus after photodynamic treatment: after 7 days, over the whole concentration range used, control without photosensitizer is 100%
Experimental: Materials The fungus Trichophyton rubrum was purchased from the Centraalbureau voor Schimmelcultures (CBS), Baarn, The Netherlands. Cultures were grown on Malt Extract Agar (MEA, Oxoid, Hampshire England). Suspension cultures were made in Dulbecco's Modified Eagle Medium (DMEM, GibcoBRL, UK) with 2.5 % Fetal Calf Serum (FCS, GibcoBRL, UK).
Solid cultures were maintained at 28° C., the suspension cultures at room temperature. Hematoporphyrin (HP) was purchased from Porphyrin Products Inc. (Utah, USA), 5,10,15-tris(4-methylpyridinium)-20-phenyl-[21H, 23H]-porphyrine trichloride (Sylsens B), deuteroporphyrin (DP) and deuteroporphyrin monomethylester (DP mme) were synthesized and kindly provided by the Department of Bio-Organic Photochemistry, Leiden University, the Netherlands (purity, checked with NMR was more than 99.5%). All the phthalocyanines were purchased from Porphyrin Products. Inc. (Utah, USA)) and Photofrin was purchased from Lederle Parenterals Inc. (Carolina, USA). Polyethylene-glycol was obtained from Genfarma B.V. (Maarssen, the Netherlands), while all other chemicals were purchased from J.T.Baker (Deventer, The Netherlands).
The following solvents were used: • 50 mM sodium phosphate buffer pH 7.4 for Sylsens B, HP, Photofrin, ZnPc and AlPcS4; • polyethyleneglycol:ethanol:water (3:2:5) for DP and DP mme; and • dimethylformamide (DMF) for PcS4.
Stock solutions of the photosensitizers of 2.5 mg/ml solvent were stored at […] for no longer than one week.
Photodynamic treatment Illuminations were performed with a lamp from “MASSIVE” (no.74900/21), 1× max. 500W-230 V-R7s, IP 44. To avoid heating of the samples to be illuminated, the white light produced by the lamp first passes a 2 cm thick water layer before reaching the samples. The light intensity was measured with a IL1400A photometer equipped with a SEL033/F/U detector (International Light, Newburyport, Mass., USA). Before illumination, the fungal culture suspensions were incubated with the photosensitizer in test tubes for 30 minutes at a temperature of 28° C. After incubation, the suspension cultures were illuminated in the presence of the sensitizer in 3 cm diameter culture dishes (Greiner, Alphen aan den Rijn, The Netherlands). After illumination, the contents of the culture dishes were transferred to dishes of 9 cm diameter containing MEA, placed in the incubator at 28° C. and growth was monitored during one week and quantified by counting the number of inoculates present.

[2] = test system: Trichophyton rubrum; format: cell-based

Compound	photodynamic efficacy below a concentration of 3 μg/ml [1]	dark toxicity [2]	result of photodynamic treatment of Trichophyton rubrum in suspension culture [1]	photodynamic efficacy above a concentration of 3 μg/ml [1]	concentration at which a true fungicidal effect was detected [1] [µg/mL]	effectiveness among the porphyrin derivatives ([1]; comparison of porphyrin derivatives)	survival of the fungus after photodynamic treatment [1] [%]	concentration at which dark toxicity is displayed [2] [µg/mL]
CC1=C(CCC(=O)O)c2cc3nc(cc4[nH]c(cc4C)cc4[nH]c(cc1n2)cc4C)C(C)=C3CCC(=O)O [DP, deuteroporphyrin]	poorest efficacy	expresses a dark toxicity at higher concentrations	–	–	–	–	–	–
CC1=C(CCC(=O)O)c2cc3[nH]c(cc4nc(cc5[nH]c(cc1n2)c(C)c5C(C)O)C(C)=C4C(C)O)c(C)c3CCC(=O)O (stereo not drawn) [HP, Hematoporphyrin]	–	no dark toxicity	–	–	–	–	–	–
C[n+]1ccc(-c2c3nc(c(-c4cc[n+](C)cc4)c4ccc([nH]4)c(-c4cc[n+](C)cc4)c4nc(c(-c5ccccc5)c5ccc2[nH]5)C=C4)C=C3)cc1.[Cl-].[Cl-].[Cl-] [Sylsens B, 5,10,15-tris(4-methylpyridinium)-20-phenyl-[21H, 23H]-porphyrine trichloride]	better photodynamic efficacy	no dark toxicity	completely killing the fungus in almost all experiments	analogous to the effect caused by the other porphyrins	3	by far the most effective	–	–
[Zn+2].c1ccc2c(c1)-c1nc-2nc2[n-]c(nc3nc([n-]c4nc(n1)-c1ccccc1-4)-c1ccccc1-3)c1ccccc21 [ZnPc]	–	–	–	–	–	–	100	–
Photofrin	–	–	merely a delay of growth in the first days	–	–	–	100	≥ 90
deuteroporphyrin monomethylester [DP mme]	the same as detected with HP	expresses a dark toxicity at higher concentrations	completely killing the fungus in almost all experiments	analogous to the effect caused by the other porphyrins	3	–	–	–
